The record followed here is ChEMBL document CHEMBL1201862, “PubChem BioAssay data set” (2004).

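Where inhibition never reached the appropriate level, the endpoint shown equals the highest concentration tested. Otherwise, values were interpolated linearly from a five-concentration, 48-hour dose response in 96-well plates. Here, GI50 denotes the concentration required for 50% inhibition of growth.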 Active and inactive are the calls of the source. Rule as the data show it: active = GI50 up to about 1.1 µM and inactive = higher.

Experiment in all cases: NCI tumour cell line growth inhibition, 48 h
Experiment [1] deals with HCC 2998.
Experiment [2] concerns NCI-H226.
Experiment [3] relates to SK-MEL-5.
For experiment [4], the system named is SN12C.
In experiment [5] the test system is HCT-15.
Experiment [6] has as its system NCI-H522.
The test system of experiment [7] is SNB-75.
In experiment [8] the test system is UACC-62.
In experiment [9] the test system is PC-3.
For experiment [10], the system named is UACC-257.
Experiment [11] concerns SF-268.
The subject of experiment [12] is 786-0.
In experiment [13] the test system is SK-OV-3.
Experiment [14] relates to DU-145.
Experiment [15] relates to MOLT-4.
Experiment [16] deals with SW-620.
Experiment [17] concerns SR.
Experiment [18] relates to OVCAR-5.
Experiment [19] concerns RPMI-8226.
In experiment [20] the test system is EKVX.

As to `C=C1C(=O)OC2CC1C(OC(=O)/C=C/c1ccccc1)C/C(C)=C/CC/C(C)=C/CCC2(C)O` (centres undefined), the GI50 was 1.58 µM (inactive) in experiment [1]; 1.64 µM (inactive) in [2]; 1.85 µM (inactive) in experiment [3]; 1.57 µM (inactive) in [4]; 0.889 µM in experiment [5]; 0.692 µM (active) in experiment [6]. Also, the GI50 in experiment [7] was 1.43 µM (inactive); in experiment [8] it was 1.95 µM (inactive); in experiment [9], 1.63 µM (inactive); in [10], 1.87 µM (inactive); in experiment [11], 1.68 µM (inactive); in experiment [12], 1.31 µM (inactive). Moreover, the GI50 was 2.19 µM (inactive) in experiment [13]; 1.68 µM (inactive) in [14]; 0.409 µM (active) in experiment [15]; 1.04 µM (active) in experiment [16]; 0.778 µM (active) in experiment [17]; 1.75 µM (inactive) in experiment [18]. The results for the GI50 in experiment [19] and in [20] were 0.433 µM (active) and 1.81 µM (inactive), respectively.
Regarding `COC(=O)C1(SC)C2CCC3C2CCC31` (centres undefined), the GI50 was > 100 µM (inactive) in experiment [1]; > 100 µM (inactive) in experiment [2]; > 100 µM (inactive) in experiment [3]; > 100 µM (inactive) in [4]; more than 100 µM in experiment [5]; > 100 µM (inactive) in experiment [6]. The GI50 in experiment [7], in [9], in [10], in experiment [11], in experiment [12] and in [13] was > 100 µM (inactive) in each case. The GI50 in experiment [14], in [15], in experiment [16], in experiment [17], in experiment [18] and in [19] was > 100 µM (inactive) throughout. Besides, the GI50 in experiment [20] was > 100 µM (inactive).
`O=C(NN=C1NCCCN1)c1ccco1`: the GI50 in experiment [1] was > 100 µM (inactive); in [2], > 100 µM (inactive); in experiment [3], > 100 µM (inactive); in experiment [4] it was > 100 µM (inactive); in [5], more than 100 µM; in experiment [6], > 100 µM (inactive). For the same compound, the GI50 in experiment [7], in experiment [8], in [9], in experiment [10], in experiment [11] and in experiment [12] was > 100 µM (inactive) throughout. Besides, the GI50 in [13], in [14], in experiment [15], in [16], in experiment [17] and in experiment [18] was > 100 µM (inactive) each time. Moreover, the GI50 in experiment [19] and in experiment [20] was > 100 µM (inactive) throughout.
For the compound `CCn1c(SCC(=O)NNC(=S)Nc2ccc(Cl)cc2)nc2ccccc2c1=O`, the GI50 in experiment [1] was 49 µM (inactive); in experiment [2] it was > 100 µM (inactive); in experiment [3] it was > 100 µM (inactive); in experiment [4], 47.5 µM (inactive); in experiment [5] it was 38.5 µM; in experiment [6], 59 µM (inactive). Moreover, the GI50 was > 100 µM (inactive) in [7]; 35.2 µM (inactive) in experiment [8]; 27.2 µM (inactive) in experiment [9]; 53.2 µM (inactive) in experiment [10]; 87.1 µM (inactive) in experiment [11]; 45.1 µM (inactive) in experiment [12]. The GI50 in experiment [13] was 53.8 µM (inactive); in experiment [14], 55.6 µM (inactive); in [15], 30.8 µM (inactive); in experiment [16], 95.1 µM (inactive); in experiment [17] it was 43.9 µM (inactive); in experiment [18], > 100 µM (inactive). Moreover, the results for the GI50 in [19] and in experiment [20] were 24.5 µM (inactive) and > 100 µM (inactive), respectively.
Regarding `Cc1ccc(O)c(C(c2cccc(C(c3cc(C)ccc3O)c3cc(C)ccc3O)c2)c2cc(C)ccc2O)c1`, the GI50 in experiment [1] was 1.86 µM (inactive); in experiment [2], 1.77 µM (inactive); in [3], 2.44 µM (inactive); in experiment [4], 1.83 µM (inactive); in experiment [5], 1.87 µM; in experiment [6] it was 1.64 µM (inactive). Also, the GI50 in experiment [7] is 1.93 µM (inactive); in [8] it was 1.99 µM (inactive); in [9], 1.77 µM (inactive); in experiment [10], 1.94 µM (inactive); in [11] it was 1.6 µM (inactive); in experiment [12] it was 1.69 µM (inactive). For the same compound, the GI50 in experiment [13] is 1.87 µM (inactive); in [14], 1.44 µM (inactive); in experiment [15], 2.6 µM (inactive); in [16] it was 1.66 µM (inactive); in experiment [17] it was 2.73 µM (inactive); in [18], 1.69 µM (inactive). For the same compound, the GI50 in experiment [19] is 1.55 µM (inactive); in [20] it was 1.82 µM (inactive).
For `COc1ccc(/N=N/c2ccc3oc(=O)c(C(=O)Nc4ccc(Cl)cc4)cc3c2)cc1`, the GI50 is > 10 µM (inactive) in experiment [1]; > 10 µM (inactive) in experiment [2]; > 10 µM (inactive) in experiment [3]; > 10 µM (inactive) in experiment [4]; 0.67 µM in [5]; > 10 µM (inactive) in experiment [6]. For the same compound, the GI50 is > 10 µM (inactive) in experiment [7]; 2.56 µM (inactive) in [9]; > 10 µM (inactive) in experiment [10]; 3.72 µM (inactive) in experiment [11]; > 10 µM (inactive) in experiment [12]; > 10 µM (inactive) in experiment [13]. Further, the GI50 in experiment [14] is > 10 µM (inactive); in [15], 7.46 µM (inactive); in experiment [16], 6.97 µM (inactive); in experiment [17], 2.38 µM (inactive); in experiment [18] it was > 10 µM (inactive); in experiment [19], > 10 µM (inactive). Moreover, the GI50 in experiment [20] is 6.15 µM (inactive).
Turning to `CC(=O)C1=CN=C2C(=O)N(c3ccccc3)N(C)C12C` (centres undefined), the GI50 was 16.9 µM (inactive) in [1]; > 100 µM (inactive) in [2]; > 100 µM (inactive) in [3]; > 100 µM (inactive) in [4]; 69.7 µM in experiment [5]; > 100 µM (inactive) in experiment [6]. Further, the GI50 was 24.7 µM (inactive) in [7]; > 100 µM (inactive) in experiment [8]; > 100 µM (inactive) in [9]; > 100 µM (inactive) in experiment [10]; > 100 µM (inactive) in experiment [12]; > 100 µM (inactive) in experiment [13]. Further, the GI50 in experiment [14], in [15], in experiment [16], in experiment [17], in experiment [18] and in experiment [19] was > 100 µM (inactive) in each case. In addition, in experiment [20], the GI50 was > 100 µM (inactive).
As for `CN(C)c1ccc(/C=C2\N=C(NN)NC2=O)cc1`, the GI50 was 80.9 µM (inactive) in [1]; 78.2 µM (inactive) in [2]; > 100 µM (inactive) in [4]; 50.8 µM in [5]; 46.1 µM (inactive) in experiment [6]; > 100 µM (inactive) in experiment [7]. The GI50 in [8] was > 100 µM (inactive); in experiment [9] it was 40.2 µM (inactive); in [10], > 100 µM (inactive); in [11] it was > 100 µM (inactive); in experiment [12] it was 75.2 µM (inactive); in experiment [13], > 100 µM (inactive). Further, the GI50 in experiment [14] was 76.7 µM (inactive); in experiment [15], 8.85 µM (inactive); in experiment [16] it was 98.2 µM (inactive); in [17] it was 23.4 µM (inactive); in [18], > 100 µM (inactive); in experiment [19] it was 49.3 µM (inactive). Moreover, the GI50 in [20] was 31.9 µM (inactive).
`CC1=NC2(CCCCC2)N(Cl)C(=O)C1SC#N` (centres undefined): the GI50 in experiment [1] was 20.7 µM (inactive); in experiment [2], 24 µM (inactive); in [3], 18.2 µM (inactive); in experiment [4], 19.4 µM (inactive); in [5] it was 23.8 µM; in [6], 16.7 µM (inactive). Also, the GI50 in experiment [7] was 20.7 µM (inactive); in experiment [8] it was 13.4 µM (inactive); in experiment [9] it was 15.8 µM (inactive); in experiment [11] it was 18 µM (inactive); in experiment [12] it was 17.5 µM (inactive); in [13], > 10 µM (inactive). In addition, the GI50 is 25.2 µM (inactive) in experiment [14]; 4.97 µM (inactive) in experiment [15]; 12.8 µM (inactive) in experiment [16]; > 100 µM (inactive) in experiment [17]; 22.8 µM (inactive) in experiment [18]; > 10 µM (inactive) in [19]. Moreover, the GI50 in [20] is 17.5 µM (inactive).
In the case of `Cc1nc2ccc(S(=O)(=O)Nc3ccc(Cl)cc3)cc2c(=O)n1NC(=O)CNc1ccc(Cl)cc1`, the GI50 was > 100 µM (inactive) in experiment [1]; > 100 µM (inactive) in [2]; > 100 µM (inactive) in [4]; more than 100 µM in experiment [5]; > 100 µM (inactive) in [6]; > 100 µM (inactive) in experiment [7]. The GI50 in [8], in [9], in experiment [10], in experiment [11], in [12] and in experiment [13] was > 100 µM (inactive) each time. Also, the GI50 in experiment [14], in experiment [15], in experiment [16], in experiment [17], in experiment [18] and in [19] was > 100 µM (inactive) each time. Moreover, in experiment [20], the GI50 was > 100 µM (inactive).
